Results taken from ChEMBL document CHEMBL1201862, “PubChem BioAssay data set” (2004).
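96-well plates; 48 h exposure; 5 concentrations. Endpoints by linear interpolation between flanking doses. Not reached: highest tested concentration assigned. Abbreviation: GI50, concentration required for 50% inhibition of growth.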 The source made the active and inactive calls. No stated cut-off is given here; in the data, active = GI50 up to about 1.1 µM and inactive = higher.

What was measured:
Assay in all cases: inhibition of tumour cell growth, NCI panel, 48 h
A498 = test system: A498
A549 = test system: A549
ACHN = test system: ACHN
CAKI-1 = test system: CAKI-1
CCRF-CEM = test system: CCRF-CEM
COLO 205 = test system: COLO 205
DLD-1 = test system: DLD-1
EKVX = test system: EKVX
HCC 2998 = test system: HCC 2998
HCT-116 = test system: HCT-116
HCT-15 = test system: HCT-15
HL-60 = test system: HL-60
HOP-18 = test system: HOP-18
HOP-62 = test system: HOP-62
HT-29 = test system: HT-29
IGROV-1 = test system: IGROV-1
K562 = test system: K562
KM-20L2 = test system: KM-20L2
KM12 = test system: KM12
LOX IMVI = test system: LOX IMVI
LXFL 529 = test system: LXFL 529
M14 = test system: M14
M19-MEL = test system: M19-MEL
MOLT-4 = test system: MOLT-4
Malme-3M = test system: Malme-3M
NCI-H226 = test system: NCI-H226
NCI-H23 = test system: NCI-H23
NCI-H460 = test system: NCI-H460
NCI-H522 = test system: NCI-H522
OVCAR-3 = test system: OVCAR-3
OVCAR-4 = test system: OVCAR-4
OVCAR-5 = test system: OVCAR-5
OVCAR-8 = test system: OVCAR-8
RPMI-8226 = test system: RPMI-8226
SF-268 = test system: SF-268
SF-295 = test system: SF-295
SF-539 = test system: SF-539
SK-MEL-28 = test system: SK-MEL-28
SK-MEL-2 = test system: SK-MEL-2
SK-MEL-5 = test system: SK-MEL-5
SK-OV-3 = test system: SK-OV-3
SN12C = test system: SN12C
SNB-19 = test system: SNB-19
SNB-75 = test system: SNB-75
SNB-78 = test system: SNB-78
SW-620 = test system: SW-620
U-251 = test system: U-251
UACC-257 = test system: UACC-257
UACC-62 = test system: UACC-62
UO-31 = test system: UO-31
786-0 = test system: 786-0
BT-549 = test system: BT-549
DMS-114 = test system: DMS-114
DU-145 = test system: DU-145
HOP-92 = test system: HOP-92
Hs-578T = test system: Hs-578T
MCF7 = test system: MCF7
MDA-MB-231 = test system: MDA-MB-231
MDA-MB-435 = test system: MDA-MB-435
NCI/ADR-RES = test system: NCI/ADR-RES
PC-3 = test system: PC-3
RXF 393 = test system: RXF 393
SR = test system: SR
T47D = test system: T47D
TK-10 = test system: TK-10

Compound: COC1C(=[N+]=[N-])C(=O)NC(=O)N1C1OC(COC(c2ccccc2)(c2ccccc2)c2ccccc2)C(O)C1O (centres undefined)
- GI50 (A498): 20.1 µM (inactive)
- GI50 (A549): 17.5 µM (inactive)
- GI50 (ACHN): 18.1 µM (inactive)
- GI50 (CAKI-1): 18.6 µM (inactive)
- GI50 (CCRF-CEM): 16.5 µM (inactive)
- GI50 (COLO 205): 19.6 µM (inactive)
- GI50 (DLD-1): 17.3 µM (inactive)
- GI50 (EKVX): 19 µM (inactive)
- GI50 (HCC 2998): 18.4 µM (inactive)
- GI50 (HCT-116): 18.2 µM (inactive)
- GI50 (HCT-15): 18 µM
- GI50 (HL-60): 23.2 µM (inactive)
- GI50 (HOP-18): 21.1 µM (inactive)
- GI50 (HOP-62): 22.7 µM (inactive)
- GI50 (HT-29): 18.7 µM (inactive)
- GI50 (IGROV-1): 20.6 µM (inactive)
- GI50 (K562): 19.7 µM (inactive)
- GI50 (KM-20L2): 17.2 µM (inactive)
- GI50 (KM12): 16.9 µM (inactive)
- GI50 (LOX IMVI): 15.5 µM (inactive)
- GI50 (LXFL 529): 17.6 µM (inactive)
- GI50 (M14): 19 µM (inactive)
- GI50 (M19-MEL): 19.4 µM (inactive)
- GI50 (MOLT-4): 18.2 µM (inactive)
- GI50 (Malme-3M): 16.1 µM (inactive)
- GI50 (NCI-H226): 17.5 µM (inactive)
- GI50 (NCI-H23): 18.2 µM (inactive)
- GI50 (NCI-H460): 25.4 µM (inactive)
- GI50 (NCI-H522): 16.2 µM (inactive)
- GI50 (OVCAR-3): 18.7 µM (inactive)
- GI50 (OVCAR-4): 14.2 µM (inactive)
- GI50 (OVCAR-5): 17.8 µM (inactive)
- GI50 (OVCAR-8): 19.2 µM (inactive)
- GI50 (RPMI-8226): 25.2 µM (inactive)
- GI50 (SF-268): 18.1 µM (inactive)
- GI50 (SF-295): 18 µM (inactive)
- GI50 (SF-539): 19.9 µM (inactive)
- GI50 (SK-MEL-28): 16.4 µM (inactive)
- GI50 (SK-MEL-2): 19.1 µM (inactive)
- GI50 (SK-MEL-5): 16.2 µM (inactive)
- GI50 (SK-OV-3): 20.5 µM (inactive)
- GI50 (SN12C): 16.3 µM (inactive)
- GI50 (SNB-19): 19.7 µM (inactive)
- GI50 (SNB-75): 15 µM (inactive)
- GI50 (SNB-78): 18 µM (inactive)
- GI50 (SW-620): 18.5 µM (inactive)
- GI50 (U-251): 19.7 µM (inactive)
- GI50 (UACC-257): > 10 µM (inactive)
- GI50 (UACC-62): 15.1 µM (inactive)
- GI50 (UO-31): 18.2 µM (inactive)

Compound: CCOc1ccc2c(ccc(/C=C/c3cc(C)c4cccnc4c3O)[n+]2C)c1
- GI50 (786-0): 0.53 µM (active)
- GI50 (A498): 1.67 µM (inactive)
- GI50 (A549): 1.33 µM (inactive)
- GI50 (ACHN): 1.4 µM (inactive)
- GI50 (BT-549): 1.52 µM (inactive)
- GI50 (CAKI-1): 4.29 µM (inactive)
- GI50 (CCRF-CEM): 0.0673 µM (active)
- GI50 (COLO 205): 0.624 µM (active)
- GI50 (DLD-1): 1.28 µM (inactive)
- GI50 (DMS-114): 0.301 µM (active)
- GI50 (DU-145): 3.62 µM (inactive)
- GI50 (EKVX): 0.925 µM (active)
- GI50 (HCC 2998): 0.746 µM (active)
- GI50 (HCT-116): 0.317 µM (active)
- GI50 (HCT-15): 3.66 µM
- GI50 (HL-60): 0.141 µM (active)
- GI50 (HOP-18): 2.8 µM (inactive)
- GI50 (HOP-62): 1.14 µM (inactive)
- GI50 (HOP-92): 0.881 µM (active)
- GI50 (HT-29): 0.378 µM (active)
- GI50 (Hs-578T): 6.82 µM (inactive)
- GI50 (IGROV-1): 0.675 µM (active)
- GI50 (K562): 0.495 µM (active)
- GI50 (KM-20L2): 0.527 µM (active)
- GI50 (KM12): 0.908 µM (active)
- GI50 (LOX IMVI): 0.356 µM (active)
- GI50 (LXFL 529): 0.384 µM (active)
- GI50 (M14): 0.836 µM (active)
- GI50 (M19-MEL): 2.99 µM (inactive)
- GI50 (MCF7): 0.115 µM (active)
- GI50 (MDA-MB-231): 0.157 µM (active)
- GI50 (MDA-MB-435): 0.929 µM (active)
- GI50 (MOLT-4): 0.158 µM (active)
- GI50 (Malme-3M): 1.94 µM (inactive)
- GI50 (NCI-H226): 0.859 µM (active)
- GI50 (NCI-H23): 1.08 µM (active)
- GI50 (NCI-H460): 0.281 µM (active)
- GI50 (NCI-H522): 0.583 µM (active)
- GI50 (NCI/ADR-RES): 41.6 µM (inactive)
- GI50 (OVCAR-3): 0.129 µM (active)
- GI50 (OVCAR-4): 1.7 µM (inactive)
- GI50 (OVCAR-5): 1.24 µM (inactive)
- GI50 (OVCAR-8): 0.301 µM (active)
- GI50 (PC-3): 0.773 µM (active)
- GI50 (RPMI-8226): 0.818 µM (active)
- GI50 (RXF 393): 3.71 µM (inactive)
- GI50 (SF-268): 0.736 µM (active)
- GI50 (SF-295): 1.24 µM (inactive)
- GI50 (SF-539): 0.485 µM (active)
- GI50 (SK-MEL-28): 0.792 µM (active)
- GI50 (SK-MEL-2): 0.498 µM (active)
- GI50 (SK-MEL-5): 0.627 µM (active)
- GI50 (SK-OV-3): 1.8 µM (inactive)
- GI50 (SN12C): 0.274 µM (active)
- GI50 (SNB-19): 0.594 µM (active)
- GI50 (SNB-75): 2.29 µM (inactive)
- GI50 (SR): 0.153 µM (active)
- GI50 (SW-620): 0.459 µM (active)
- GI50 (T47D): 0.54 µM (active)
- GI50 (TK-10): 0.575 µM (active)
- GI50 (U-251): 0.18 µM (active)
- GI50 (UACC-257): 0.933 µM (active)
- GI50 (UACC-62): 1.53 µM (inactive)
- GI50 (UO-31): 8.09 µM (inactive)
